Experimental data taken from patent US12674135B2, “Three-dimensional culture of immortalized skin cells on the superficial layer of which a stratum corneum is formed, method for producing said three-dimensional culture, and method for evaluating test substance using said three-dimensional culture” (National Institute of Advanced Industrial Science and …, priority 2020, dated 2026).

How the values were obtained:
[1] = tested on: IL-8 promoter (red light-emitting luciferase) in three-dimensional culture of HaCaT
Description: (§1) The thus obtained HaCaT was used to obtain a three-dimensional culture by the same method as in Example 1. The three-dimensional culture was a three-dimensional culture in which a Cellbed was used as a plate-like substrate as in Example 1, to which a HaCaT culture layered product was adhered, and the superficial layer of the three-dimensional culture was the stratum corneum.
(§2) A cell culture insert (Falcon Culture Insert #353095) comprising a clear, colorless, PET membrane with a 0.4 μm pore size bottom for 24 wells was inserted into the wells of a 24-well plate for cell culture with black walls and a colorless bottom, the three-dimensional culture was placed in the bottom of the culture insert with the cells on top, and 0.8 mL of KGM-gold containing 0.2 mM luciferin potassium salt was placed in the well outside the culture insert. For sensitization evaluation, a test substance was loaded from the top of the three-dimensional culture inside the insert. […] As a solvent control, 30 μL of KGM medium was added from the top of the three-dimensional culture. Plastic paraffin film was sprinkled around this well plate and the luminescence was measured for 0 to 72 hours with a real-time luminescence monitoring system for cultured cells, Kronos HT (manufactured by ATTO Corporation). Measurements were taken every minute for 10 seconds for each color and continued for 0 to 72 hours. […]

[2] = tested on: IL-8 promoter (red light-emitting luciferase) in three-dimensional culture of HaCaT; conditions: 20 μM, 100 μM and 200 μM, loaded from bottom and top surfaces, 0 to 72 hours, FIG. 15
Description: as §1
A cell culture insert (Falcon Culture Insert #353095) comprising a clear, colorless, PET membrane with a 0.4 μm pore size bottom for 24 wells was inserted into the wells of a 24-well plate for cell culture with black walls and a colorless bottom, the three-dimensional culture obtained in Example 3 was placed in the bottom of the culture insert with the cells on top. […] 0.8 mL of this medium was placed on the outside of the culture insert, and then 30 μL was loaded from the top of the three-dimensional culture. […]
Plastic paraffin film was sprinkled around this well plate and the luminescence was measured for 0 to 72 hours with a real-time luminescence monitoring system for cultured cells, Kronos HT (manufactured by ATTO Corporation). The bioluminescence intensity of each luciferase was measured on these three-dimensional cultures as in Example 5.

[3] = tested on: IL-8 promoter (red light-emitting luciferase) in three-dimensional culture of HaCaT; experiment: Skin sensitization evaluation: test substance loaded from the top of the three-dimensional HaCaT culture, multicolor luciferase luminescence (IL-8 promoter red / UBC promoter green); conditions: range of from 200 µM to 2 mM in KGM medium, 30 μL loaded only from the top, up to 72 hours, FIG. 10
Description: as §1, §2

SMILES	emission intensity, concentration dependence [1]	bioluminescence intensity ratio of red light-emitting luciferase (IL-8 promoter) to green light-emitting luciferase (ubiquitin C promoter) [2]	relative bioluminescence intensity of red light-emitting luciferase (IL-8 promoter) to green light-emitting luciferase (ubiquitin C promoter) [3]
CCCCN(CCCC)c1ccccc1 [DA, dibutylaniline]	concentration dependence was observed	–	–
Oc1ccc(O)cc1 [HQ, hydroquinone]	–	increased in a concentration-dependent manner	concentration-dependent increase
